Assay results: patent publication US10065990B2, “Cyclic peptide compound, and preparation method, pharmaceutical composition and use thereof” (HANGZHOU GUANYU BIO-MEDICAL CO., LTD, priority 2013, dated 2018)
Like-named read-outs stand apart in the source and are kept apart here.

Tests used:
HDAC7 = molecular target: T1, HDAC7 (Homo sapiens, UniProt Q8WUI4); experiment: HDAC biochemical activity measurement (fluorescent substrate deacetylation);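 note: fluorogenic deacetylation assay using acetyl-lysine substrate at 20 µM, enzyme and compound incubated 30 min at 37 °C, then developer added, fluorescence read at 360/460 nm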; conditions: HDAC7; 37° C. 30 minutes
T1 sequence (Q8WUI4 1-952): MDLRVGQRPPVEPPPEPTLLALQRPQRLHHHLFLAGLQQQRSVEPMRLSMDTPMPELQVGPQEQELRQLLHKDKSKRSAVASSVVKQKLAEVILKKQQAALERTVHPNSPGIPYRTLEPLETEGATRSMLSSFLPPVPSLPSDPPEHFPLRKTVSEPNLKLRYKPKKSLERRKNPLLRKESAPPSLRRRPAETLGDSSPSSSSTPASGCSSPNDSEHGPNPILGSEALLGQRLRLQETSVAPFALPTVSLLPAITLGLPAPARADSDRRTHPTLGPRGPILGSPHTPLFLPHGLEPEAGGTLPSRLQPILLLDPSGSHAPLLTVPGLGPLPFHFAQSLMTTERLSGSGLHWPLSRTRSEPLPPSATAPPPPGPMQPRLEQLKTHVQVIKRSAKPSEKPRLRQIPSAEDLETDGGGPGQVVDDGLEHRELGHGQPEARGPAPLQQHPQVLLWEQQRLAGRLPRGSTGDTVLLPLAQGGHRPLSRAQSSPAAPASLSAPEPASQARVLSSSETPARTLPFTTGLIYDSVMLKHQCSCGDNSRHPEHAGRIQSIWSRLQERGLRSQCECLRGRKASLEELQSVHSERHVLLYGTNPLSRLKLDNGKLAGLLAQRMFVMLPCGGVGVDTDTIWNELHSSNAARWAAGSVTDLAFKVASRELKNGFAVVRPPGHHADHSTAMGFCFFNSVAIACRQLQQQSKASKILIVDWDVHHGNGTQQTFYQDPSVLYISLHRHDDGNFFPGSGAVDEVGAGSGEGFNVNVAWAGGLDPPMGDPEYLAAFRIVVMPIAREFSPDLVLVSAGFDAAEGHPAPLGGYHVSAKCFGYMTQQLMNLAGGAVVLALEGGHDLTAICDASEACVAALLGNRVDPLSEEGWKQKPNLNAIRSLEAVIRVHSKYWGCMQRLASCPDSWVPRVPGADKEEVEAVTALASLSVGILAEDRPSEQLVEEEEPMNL

[1] = test system: MCF-7 (human breast cancer cells); experiment: MTT cancer cell growth inhibition; format: cell-based; conditions: Homo sapiens, MCF7, 72 h
How it was run: (§1)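 Seed 1500 cells/well, incubate overnight. Add compound, 10^−5 to 10^−10 M final, n=3; culture 72 h, 37° C., 5% CO2. Add MTT, 4 h. Discard supernatant, dissolve in DMSO. Read 570 nm; calculate viability and GI50.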

[2] = test system: SGC-7901 (human gastric cancer cells); experiment: MTT cancer cell growth inhibition; format: cell-based; conditions: Homo sapiens, SGC-7901, 72 h, MTT, 72 hours incubation, SGC-7901 cells; read-out: GI50 SGC-7901
How it was run: as §1

[3] = test system: HT1080 (human fibrosarcoma cells); experiment: MTT cancer cell growth inhibition; format: cell-based; conditions: Homo sapiens, HT-1080, 72 h, MTT
How it was run: as §1

[4] = test system: DU145 (human prostate cancer cells); experiment: MTT cancer cell growth inhibition; format: cell-based; conditions: Homo sapiens, DU-145, 72 h, MTT
How it was run: as §1

[5] = test system: MOLT-4 (human acute lymphoblastic leukemia cells); experiment: MTT cancer cell growth inhibition; format: cell-based; conditions: Homo sapiens, MOLT-4, 72 h, MTT
How it was run: as §1

[6] = test system: Hela (human cervical cancer cells); experiment: MTT cancer cell growth inhibition; format: cell-based; conditions: Homo sapiens, HeLa, 72 h, MTT
How it was run: as §1

[7] = test system: Huh-7 (human hepatoma cells); experiment: MTT cancer cell growth inhibition; format: cell-based; conditions: Homo sapiens, Huh-7, 72 h, MTT, 72 hours incubation, Huh-7 cells; read-out: GI50 Huh-7
How it was run: as §1

[8] = test system: BGC-823 (human gastric cancer cells); experiment: MTT cancer cell growth inhibition; format: cell-based; conditions: Homo sapiens, BGC-823, 72 h, MTT
How it was run: as §1

[9] = test system: U937 (human leukemia cells); experiment: MTT cancer cell growth inhibition; format: cell-based; conditions: Homo sapiens, U-937, 72 h, MTT
How it was run: as §1

[10] = test system: KBM5-T315I (human chronic myelogenous leukemia); experiment: MTT cancer cell growth inhibition; format: cell-based; conditions: Homo sapiens, 72 h, MTT, 72 hours incubation, KBM5-T315I cells; read-out: GI50 KBM5-T315I
How it was run: as §1

[11] = test system: MDA-MB-231 (breast cancer cells); experiment: MTT cancer cell growth inhibition; format: cell-based; conditions: Homo sapiens, MDA-MB-231, 72 h, read-out: GI50 MDA-MB-231, MTT, 72 hours incubation, MDA-MB-231 cells
How it was run: as §1

[12] = test system: A549 (human lung cancer cells); experiment: MTT cancer cell growth inhibition; format: cell-based; conditions: Homo sapiens, A549, 72 h, MTT
How it was run: as §1

[13] = test system: Bel-7402 (human hepatoma cells); experiment: MTT cancer cell growth inhibition; format: cell-based; conditions: Homo sapiens, Bel-7402, 72 h, MTT, 72 hours incubation, Bel-7402 cells; read-out: GI50 Bel-7402
How it was run: as §1

HDAC1 = HDAC1 (Homo sapiens, UniProt Q13547); experiment: HDAC biochemical activity measurement (fluorescent substrate deacetylation);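 note: fluorogenic acetyl-lysine substrate (20 µM) deacetylated by HDAC1, then developer releases fluorophore read at 360 nm excitation and 460 nm emission, inhibitor incubated 30 min at 37 °C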
HDAC1, sequence (Q13547 whole entry, species assumed): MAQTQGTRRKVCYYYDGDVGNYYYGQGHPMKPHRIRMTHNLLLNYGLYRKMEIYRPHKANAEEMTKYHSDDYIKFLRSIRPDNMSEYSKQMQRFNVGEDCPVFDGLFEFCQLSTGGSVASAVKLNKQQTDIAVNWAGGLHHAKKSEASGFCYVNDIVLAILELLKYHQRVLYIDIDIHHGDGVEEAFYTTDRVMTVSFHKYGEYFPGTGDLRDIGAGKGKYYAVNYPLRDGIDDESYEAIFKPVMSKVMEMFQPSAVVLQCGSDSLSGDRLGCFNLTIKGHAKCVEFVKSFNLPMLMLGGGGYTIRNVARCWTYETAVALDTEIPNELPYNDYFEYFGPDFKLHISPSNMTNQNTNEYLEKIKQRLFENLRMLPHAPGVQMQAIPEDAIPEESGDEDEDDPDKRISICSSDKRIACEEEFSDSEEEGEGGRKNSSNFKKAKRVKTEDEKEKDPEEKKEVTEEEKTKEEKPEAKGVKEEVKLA
Description: The chemical activity of the compound is determined according to the degree of deacetylation inhibition of the HDAC enzyme. This experiment measured the degree of deacetylation related to tumor proliferation and metastasis of HDAC1, HDAC2, HDAC3, HDAC8, HDAC11 five subtypes HDAC enzymes. After the substrate containing an acetylated lysine side chain and HDAC enzyme are labeled with a fluorescent label, the fluorescent substrate is de acetyl. The fluorescent labeled substrate is cleaved by the enzyme, and the fluorescent substance is released, which generates 460 nm emission light under the excitation of 360 nm light.
HDAC substrate was diluted with reaction buffer to 200M (reaction concentration of 20M), the HDAC enzyme was diluted to the appropriate concentration, then added different concentrations of the test compounds and acted at 37° C. 30 minutes, and then added the same volume of 2-times concentration substrate developing solution (developer), incubated at room temperature for 15 minutes.

HDAC2 = HDAC2 (Homo sapiens, UniProt Q92769); experiment: as above; conditions: 37° C. 30 minutes;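 note: HDAC2 enzyme with an acetyl-lysine fluorescent substrate, then developer added, fluorescence read at excitation 360 nm and emission 460 nm, inhibition measured across several compound concentrations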
HDAC2, sequence (Q92769 whole entry, species assumed): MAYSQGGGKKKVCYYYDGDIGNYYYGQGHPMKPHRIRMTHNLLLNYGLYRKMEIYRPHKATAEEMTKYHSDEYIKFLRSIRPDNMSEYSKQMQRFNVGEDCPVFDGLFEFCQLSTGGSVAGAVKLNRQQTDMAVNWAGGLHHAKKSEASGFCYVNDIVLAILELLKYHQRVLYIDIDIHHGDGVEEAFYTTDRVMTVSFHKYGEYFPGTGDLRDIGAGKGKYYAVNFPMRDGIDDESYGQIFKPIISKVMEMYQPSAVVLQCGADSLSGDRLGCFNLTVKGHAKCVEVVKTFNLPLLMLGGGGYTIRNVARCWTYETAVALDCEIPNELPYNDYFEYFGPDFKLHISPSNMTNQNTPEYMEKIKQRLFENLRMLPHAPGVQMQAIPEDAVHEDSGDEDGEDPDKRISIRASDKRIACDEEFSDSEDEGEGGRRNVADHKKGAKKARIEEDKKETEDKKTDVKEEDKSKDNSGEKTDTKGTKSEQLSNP

[14] = 72 hours, present invention, read-out: GI50 MCF7, a
[15] = MCF-7 cells, 72 hours incubation, read-out: GI50 MCF
[16] = HT1080 cells, 72 hours incubation, read-out: GI50 HT1
[17] = 72 hours, present invention, read-out: GI50 HT1080, a
[18] = DU145 cells, 72 hours incubation, read-out: GI50 Du1
[19] = 72 hours, present invention, read-out: GI50 Du145, a
[20] = MOLT-4 cells, 72 hours incubation, read-out: GI50 Mol
[21] = 72 hours, present invention, read-out: GI50 Molt-4, a
[22] = 72 hours, present invention, read-out: GI50 Hela, a
[23] = BGC-823 cells, 72 hours incubation, read-out: GI50 BG
[24] = 72 hours, present invention, read-out: GI50 BGC823, a
[25] = 72 hours, present invention, read-out: GI50 U937, a
[26] = U937 cells, 72 hours incubation, read-out: GI50 U93
[27] = A549 cells, 72 hours incubation, read-out: GI50 A54
[28] = 72 hours, present invention, read-out: GI50 A549, a
[29] = HDAC1, 37° C. 30 minutes, read-out: IC50 HDAC1
[30] = Table 2, read-out: IC50 HDAC1, a (compounds of the present invention)
[31] = Hela cells, 72 hours incubation, read-out: GI50 Hela
[32] = 72 hours incubation, read-out: GI50 MCF
[33] = 72 hours incubation, read-out: GI50 HT1
[34] = 72 hours incubation, read-out: GI50 Du1
[35] = 72 hours incubation, read-out: GI50 Mol
[36] = 72 hours incubation, read-out: GI50 Hela
[37] = 72 hours incubation, read-out: GI50 BG
[38] = 72 hours incubation, read-out: GI50 U93
[39] = 72 hours incubation, read-out: GI50 A54

Compound	IC50 HDAC7 (HDAC7)	GI50 [1, 14]	GI50 [1, 15]	GI50 [2]	GI50 [3, 16]	GI50 [3, 17]	GI50 [7]	GI50 [10]	GI50 [11]	GI50 [13]	IC50 (HDAC1; [29])	IC50 (HDAC2)	GI50 [1, 32]	GI50 [3, 33]	GI50 [4, 34]	GI50 [5, 35]	GI50 [6, 36]	GI50 [8, 37]	GI50 [9, 38]	GI50 [12, 39]	other results
C=C1NC(=O)c2cccc(n2)CNC(=O)C[C@@H](/C=C/CCSC(=O)CCCCCCC)OC(=O)[C@H](C(C)C)NC1=O [Compound 244]	no activity	330 nM	330 nM	36 nM	760 nM	760 nM	92 nM	12 nM	35 nM	29 nM	92 nM	53 nM									GI50 [4, 18]: 950 nM; GI50 [4, 19]: 950 nM; GI50 [5, 20]: 110 nM; GI50 [5, 21]: 110 nM; GI50 [6, 22]: 8 nM; GI50 [8, 23]: 390 nM; GI50 [8, 24]: 390 nM; GI50 [9, 25]: 890 nM; GI50 [9, 26]: 890 nM; GI50 [12, 27]: 120 nM; GI50 [12, 28]: 120 nM; IC50 (HDAC1; [30]): < 100 nM
CCCCCCCC(=O)SCC/C=C/[C@@H]1CC(=O)NCc2cccc(n2)C(=O)NC(CC)C(=O)N[C@@H](C(C)C)C(=O)O1 (stereo partly drawn) [Compound 245]	no activity	41 nM	40 nM	63 nM	650 nM	650 nM	31 nM	12 nM	65 nM	87 nM	66 nM	74 nM									GI50 [4, 18]: 130 nM; GI50 [4, 19]: 130 nM; GI50 [5, 20]: 350 nM; GI50 [5, 21]: 350 nM; GI50 [6, 31]: 530 nM; GI50 [6, 22]: 530 nM; GI50 [8, 23]: 770 nM; GI50 [8, 24]: 770 nM; GI50 [9, 25]: 840 nM; GI50 [9, 26]: 840 nM; GI50 [12, 27]: 110 nM; GI50 [12, 28]: 110 nM; IC50 (HDAC1; [30]): < 100 nM
CCCCCCCC(=O)SCC/C=C/[C@@H]1CC(=O)NCc2cccc(n2)C(=O)NCC(=O)N[C@@H](C(C)C)C(=O)O1 [Compound 246]	no activity	310 nM	310 nM	32 nM	10 nM	17 nM	21 nM	33 nM	47 nM	38 nM	90 nM	69 nM									GI50 [4, 18]: 20 nM; GI50 [4, 19]: 20 nM; GI50 [5, 20]: 910 nM; GI50 [5, 21]: 910 nM; GI50 [6, 31]: 10 nM; GI50 [6, 22]: 13 nM; GI50 [8, 23]: 1020 nM; GI50 [8, 24]: 1020 nM; GI50 [9, 25]: 110 nM; GI50 [9, 26]: 110 nM; GI50 [12, 27]: 110 nM; GI50 [12, 28]: 110 nM; IC50 (HDAC1; [30]): < 100 nM
C/C=C1\NC(=O)c2cccc(n2)NC(=O)C[C@@H](/C=C/CCSC(C)=O)OC(=O)[C@H](C(C)C)NC1=O [Example 22]	no activity			53 nM			82 nM	26 nM	92 nM	84 nM	93 nM	54 nM	1110 nM	50 nM	40 nM	2060 nM	390 nM	5880 nM	120 nM	1030 nM	
C/C=C1\NC(=O)c2cccc(n2)CCNC(=O)C[C@@H](/C=C/CCSC(C)=O)OC(=O)[C@H](C(C)C)NC1=O [Example 26]	no activity			37 nM			51 nM	31 nM	98 nM	97 nM	91 nM	64 nM	53700 nM	18000 nM	11700 nM	3350 nM	37000 nM	5400 nM	9500 nM	38900 nM	
C/C=C1\NC(=O)c2nc(ccc2F)CNC(=O)C[C@@H](/C=C/CCSC(=O)CC)OC(=O)[C@H](C(C)C)NC1=O [Example 45]	no activity			43 nM			37 nM	59 nM	37 nM	61 nM	64 nM	32 nM	50 nM	60 nM	30 nM	30 nM	90 nM	50 nM	30 nM	40 nM	
C/C=C1\NC(=O)c2ccc(F)c(n2)CNC(=O)C[C@@H](/C=C/CCSC(=O)CC)OC(=O)[C@H](C(C)C)NC1=O [Example 47]	no activity			49 nM			24 nM	56 nM	24 nM	43 nM	71 nM	26 nM	50 nM	40 nM	30 nM	20 nM	80 nM	60 nM	20 nM	40 nM	
